Target: T1, recombinant human IKKb (Homo sapiens, UniProt O14920)
T1 sequence (O14920 1-756): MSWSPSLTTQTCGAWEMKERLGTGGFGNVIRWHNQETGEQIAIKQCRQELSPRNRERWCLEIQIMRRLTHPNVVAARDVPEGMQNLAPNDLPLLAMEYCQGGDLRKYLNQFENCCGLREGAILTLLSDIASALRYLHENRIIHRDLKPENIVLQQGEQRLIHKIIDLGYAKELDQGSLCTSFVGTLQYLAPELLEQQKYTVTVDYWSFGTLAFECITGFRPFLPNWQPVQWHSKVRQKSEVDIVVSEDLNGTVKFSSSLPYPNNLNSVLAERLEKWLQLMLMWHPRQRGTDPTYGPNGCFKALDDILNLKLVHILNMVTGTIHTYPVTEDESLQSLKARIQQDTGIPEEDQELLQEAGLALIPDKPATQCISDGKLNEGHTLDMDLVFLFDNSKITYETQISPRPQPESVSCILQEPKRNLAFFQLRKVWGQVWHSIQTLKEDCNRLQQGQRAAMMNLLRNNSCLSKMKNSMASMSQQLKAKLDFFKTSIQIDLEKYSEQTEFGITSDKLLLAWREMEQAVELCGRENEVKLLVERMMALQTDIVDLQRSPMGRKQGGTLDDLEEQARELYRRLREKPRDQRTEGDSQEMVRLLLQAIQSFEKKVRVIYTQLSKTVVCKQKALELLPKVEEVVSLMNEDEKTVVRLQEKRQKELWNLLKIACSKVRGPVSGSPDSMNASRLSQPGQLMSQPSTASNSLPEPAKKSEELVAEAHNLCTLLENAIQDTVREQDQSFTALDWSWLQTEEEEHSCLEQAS
Test: IKK kinase assay: incorporation of radiolabeled ATP into biotin-peptide substrate derived from IkB-alpha
Format: biochemical
Details: purified recombinant human IKKb 25 nM, ATP 10 μM, 30 min at 30° C.
Protocol: This example describes an assay that is useful in evaluating and selecting a compound that modulates IKK. The assay measures the incorporation of radiolabeled ^3P gATP into the Biotin-peptide kinase substrate, derived from the IkB-alpha sequence.
In a 40 ul volume, 26 ul of ADB diluted, purified recombinant human IKKb [25 nM] was mixed with 4 ul 10× concentration of test compounds, [usually 100 uM-0.003 uM], [10%] DMSO and incubated for 10 minutes at room temperature. The kinase reaction was initiated by the addition of 10 ul 4× substrate cocktail containing the peptide substrate [0 or 30 μM] ATP [10 μM], and ^3PgATP [2 uCi/r×n]. After 30 minutes of incubation at 30° C., the reaction was terminated by the transfer of 25 ul reaction sample to a phosphocellulose membrane/plate containing 150 ul 0.75% phosphoric acid.
On the following day, the free radionucleotides in the phosphocellulose membrane were washed under vacuum with 3×200 ul of 0.75% phosphoric acid. After the last wash membrane/plates were transferred to an adoptor plate and 70 ul of scintillation cocktail was added to each well. After four hours, the amount of radioactivity for each well was counted in a top counter.

N#Cc1cccc(-c2cc3c(N)ncc(C(N)=O)c3s2)c1 [Compound 12, 4-Amino-2-(3-cyano-phenyl)-thieno[3,2-c]pyridine-7-carboxylic acid amide]
IC50: < 1000 nM

From patent publication US20070244146A1, “Thienopyridines as IKK inhibitors” (priority 2004, published 2007)
